The results in this text go back to patent US7998965B2, “Glutamate aggrecanase inhibitors” (Wyeth LLC, priority 2005, dated 2011).

A word on the IC50: it is the midpoint of a concentration-inhibition curve.

The target in assay [1] is T1, purified recombinant human Aggrecanase-1 (rAgg1) (Homo sapiens, UniProt O75173).
T1 sequence (O75173 213-837): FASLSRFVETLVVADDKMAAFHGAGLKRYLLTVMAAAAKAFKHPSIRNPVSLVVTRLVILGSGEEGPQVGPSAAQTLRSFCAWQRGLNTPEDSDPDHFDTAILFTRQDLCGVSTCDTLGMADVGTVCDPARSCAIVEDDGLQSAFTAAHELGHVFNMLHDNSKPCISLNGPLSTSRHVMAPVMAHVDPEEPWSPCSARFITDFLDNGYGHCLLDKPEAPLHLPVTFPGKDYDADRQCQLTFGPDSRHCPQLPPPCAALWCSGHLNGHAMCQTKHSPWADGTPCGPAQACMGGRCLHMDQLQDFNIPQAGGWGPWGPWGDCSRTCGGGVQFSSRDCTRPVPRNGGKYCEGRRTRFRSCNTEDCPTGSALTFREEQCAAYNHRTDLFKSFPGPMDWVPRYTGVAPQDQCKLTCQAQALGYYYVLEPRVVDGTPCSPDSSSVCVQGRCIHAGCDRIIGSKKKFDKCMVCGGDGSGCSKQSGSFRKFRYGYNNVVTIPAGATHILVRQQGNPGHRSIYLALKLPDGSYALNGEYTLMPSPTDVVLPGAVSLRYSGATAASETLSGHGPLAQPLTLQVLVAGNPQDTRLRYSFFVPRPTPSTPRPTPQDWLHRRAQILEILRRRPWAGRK
The experiment in a line: In vitro fluorescence screen for Aggrecanase-1 inhibitors. It counts as biochemical. The following applies: Table 2; read-out: Agg1 IC50.

Assay [2] addresses T2, purified recombinant human Aggrecanase-2 (Ag2t-Phe628-Strep) (Homo sapiens, UniProt Q9UNA0).
T2 construct: the form used is denoted as Ag2t-Phe628-Strep (MW=41,737)
T2 sequence (Q9UNA0 262-628): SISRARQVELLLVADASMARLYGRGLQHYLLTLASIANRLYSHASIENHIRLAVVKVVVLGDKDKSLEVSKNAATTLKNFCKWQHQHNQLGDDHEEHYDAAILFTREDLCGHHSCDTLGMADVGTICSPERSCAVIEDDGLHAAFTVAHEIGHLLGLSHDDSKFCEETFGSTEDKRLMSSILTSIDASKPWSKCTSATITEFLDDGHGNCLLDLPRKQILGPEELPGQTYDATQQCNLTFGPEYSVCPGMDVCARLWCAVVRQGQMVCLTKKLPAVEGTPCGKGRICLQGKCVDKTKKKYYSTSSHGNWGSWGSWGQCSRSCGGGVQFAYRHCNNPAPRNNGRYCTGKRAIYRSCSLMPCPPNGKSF
The experiment in a line: In vitro fluorescence screen for Aggrecanase-2 inhibitors. The assay is classed as biochemical. The following applies: Table 2; read-out: Agg 2 IC50.

Where only a bound is given, the exact number is not on record here.

Turning to `CCOc1ccccc1-c1ccc(C(=O)N[C@@H](CCC(=O)O)C(=O)NC(C)(C)Cc2ccccc2)cc1` [Example 17K, N-(1,1-dimethyl-2-phenylethyl)-N^2-[(2′-ethoxybiphenyl-4-yl)carbonyl]-L-α-glutamine], the IC50 is 1200 nM in assay [1] and ~3700 nM in assay [2].
For `COc1cc(CNC(=O)[C@H](CCC(=O)O)NC(=O)c2ccc(-c3c(C)cc(C)cc3C)cc2)cc(OC)c1OC` [Example 17KK, N-(3,4,5-trimethoxybenzyl)-N^2-[(2′,4′,6′-trimethylbiphenyl-4-yl)carbonyl]-L-α-glutamine], in that order: > 25000 nM and > 67000 nM.
The corresponding values for `Cc1ccc(-c2ccc(C(=O)N[C@@H](CCC(=O)O)C(=O)NC(C)(C)Cc3ccccc3)cc2)cc1F` [Example 17L, N-(1,1-dimethyl-2-phenylethyl)-N^2-[(3′-fluoro-4′-methylbiphenyl-4-yl)carbonyl]-L-α-glutamine] are 133 nM and 226 nM.
Turning to `CC(C)(Cc1ccccc1)NC(=O)[C@H](CCC(=O)O)NC(=O)c1ccc(-c2ccc(O)cc2)cc1` [Example 17LL, N-(1,1-dimethyl-2-phenylethyl)-N^2-[(4′-hydroxybiphenyl-4-yl)carbonyl]-L-α-glutamine], the figures for the IC50 in assay [1] and in assay [2] were 87 nM and 1190 nM, respectively.
The corresponding values for `COc1ccc(-c2ccc(C(=O)NC(CCC(=O)O)C(=O)NCc3cc(OC)c(OC)c(OC)c3)cc2)cc1C` (centres unmarked) [Example 17M, 4-[(4′-Methoxy-3′-methyl-biphenyl-4-carbonyl)-amino]-4-(3,4,5-trimethoxy-benzylcarbamoyl)-butyric acid] are ~310 nM and > 11000 nM.
Regarding `CCOc1cccc(-c2ccc(C(=O)N[C@@H](CCC(=O)O)C(=O)NC(C)(C)Cc3ccccc3)cc2)c1` [Example 17MM, N-(1,1-dimethyl-2-phenylethyl)-N^2-[(3′-ethoxybiphenyl-4-yl)carbonyl]-L-α-glutamine], the IC50 in assay [1] turned out to be 46 nM; in assay [2] it was 2710 nM.
Take `Cc1cccc(CNC(=O)[C@H](CCC(=O)O)NC(=O)c2ccc(-c3ccc4c(c3)OCO4)cc2)c1` [Example 17NN, N^2-[4-(1,3-benzodioxol-5-yl)benzoyl]-N-(3-methylbenzyl)-L-α-glutamine]: the IC50 in assay [1] came out at 200 nM; in assay [2], 729 nM.
For `O=C(O)CC[C@H](NC(=O)c1ccc(-c2ccc(O)cc2)cc1)C(=O)NCC12CC3CC(CC(C3)C1)C2` [Example 17O, N-(1-adamantylmethyl)-N^2-[(4′-hydroxybiphenyl-4-yl)carbonyl]-L-α-glutamine], in that order: 8500 nM and ~22000 nM.
For `CC(C)(Cc1ccc(F)cc1)NC(=O)[C@H](CCC(=O)O)NC(=O)c1ccc(-c2ccc(O)cc2)cc1` [Example 17OO, N-[2-(4-fluorophenyl)-1,1-dimethylethyl]-N^2-[(4′-hydroxybiphenyl-4-yl)carbonyl]-L-α-glutamine], in that order: < 30 nM and 1680 nM.
The corresponding values for `CC(C)(Cc1ccccc1)NC(=O)[C@H](CCC(=O)O)NC(=O)c1ccc(-c2ccc3c(c2)OCO3)cc1` [Example 17P, N^2-[4-(1,3-benzodioxol-5-yl)benzoyl]-N-(1,1-dimethyl-2-phenylethyl)-L-α-glutamine] are 126 nM and 58 nM.
For `COc1ccc(-c2ccc(C(=O)N[C@@H](CCC(=O)O)C(=O)NC(C)(C)Cc3ccccc3)cc2)c(OC)c1` [Example 17Q, N^2-[(2′,4′-dimethoxybiphenyl-4-yl)carbonyl]-N-(1,1-dimethyl-2-phenylethyl)-L-α-glutamine], the IC50 in assay [1] was ~13000 nM; in assay [2] it was > 30000 nM.
Take `O=C(O)CC[C@H](NC(=O)c1ccc(C#CC2CCC(O)CC2)cc1)C(=O)NCc1ccccc1` (stereo partly drawn) [Example 17QQ, N-benzyl-N^2-{4-[(4-hydroxycyclohexyl)ethynyl]benzoyl}-L-α-glutamine]: the values for the IC50 in assay [1] and in assay [2] were > 25000 nM and ~22000 nM, respectively.
The corresponding values for `COc1cc(CNC(=O)[C@H](CCC(=O)O)NC(=O)c2ccc(-c3cccc(O)c3)cc2)cc(OC)c1OC` [Example 17RR, N^2-[(3′-hydroxybiphenyl-4-yl)carbonyl]-N-(3,4,5-trimethoxybenzyl)-L-α-glutamine] are < 30 nM and 26 nM.
For `CCC(C)c1ccc(-c2ccc(C(=O)N[C@@H](CCC(=O)O)C(=O)NC(C)(C)Cc3ccccc3)cc2)cc1` (stereo partly drawn) [Example 17S, N^2-[(4′-sec-butylbiphenyl-4-yl)carbonyl]-N-(1,1-dimethyl-2-phenylethyl)-L-α-glutamine], in that order: 4600 nM and 10100 nM.
For `CC(C)(Cc1ccccc1)NC(=O)[C@H](CCC(=O)O)NC(=O)c1ccc(-c2ccc(CO)cc2)cc1` [Example 17SS, N-(1,1-dimethyl-2-phenylethyl)-N^2-{[4′-(hydroxymethyl)biphenyl-4-yl]carbonyl}-L-α-glutamine], in that order: 450 nM and 3960 nM.
In the case of `CC(C)c1ccc(-c2ccc(C(=O)N[C@@H](CCC(=O)O)C(=O)NC(C)(C)Cc3ccccc3)cc2)cc1` [Example 17T, N-(1,1-dimethyl-2-phenylethyl)-N^2-[(4′-isopropylbiphenyl-4-yl)carbonyl]-L-α-glutamine], the IC50 in assay [1] was found to be 3200 nM; in assay [2] it was 7200 nM.
For `Cc1ccc(-c2ccc(C(=O)N[C@@H](CCC(=O)O)C(=O)NC(C)(C)Cc3ccccc3)cc2)cc1` [Example 17TT, N-(1,1-dimethyl-2-phenylethyl)-N^2-[(4′-methylbiphenyl-4-yl)carbonyl]-L-α-glutamine], in that order: 120 nM and 173 nM.
The corresponding values for `CC(C)(Cc1ccccc1)NC(=O)[C@H](CCC(=O)O)NC(=O)c1ccc(-c2ccc(-c3ccccc3)cc2)cc1` [Example 17U, N-(1,1-dimethyl-2-phenylethyl)-N^2-(1,1′:4′,1″-terphenyl-4-ylcarbonyl)-L-α-glutamine] are 1800 nM and ~6700 nM.
Turning to `CC(C)(Cc1ccc(F)cc1)NC(=O)[C@H](CCC(=O)O)NC(=O)c1ccc(-c2cccc(O)c2)cc1` [Example 17UU, N-[2-(4-fluorophenyl)-1,1-dimethylethyl]-N^2-[(3′-hydroxybiphenyl-4-yl)carbonyl]-L-α-glutamine], the figures for the IC50 in assay [1] and in assay [2] were < 30 nM and 39 nM, respectively.
Take `COc1cc(CNC(=O)[C@H](CCC(=O)O)NC(=O)c2ccc(-c3ccc(O)cc3)cc2)cc(OC)c1OC` [Example 17V, N^2-[(4′-hydroxybiphenyl-4-yl)carbonyl]-N-(3,4,5-trimethoxybenzyl)-L-α-glutamine]: the IC50 came out at 90 nM in assay [1] and 1800 nM in assay [2].
Consider `CN(C)C(=O)c1cccc(-c2ccc(C(=O)N[C@@H](CCC(=O)O)C(=O)NCC34CC5CC(CC(C5)C3)C4)cc2)c1` [Example 17W, N-(1-adamantylmethyl)-N^2-({3′-[(dimethylamino)carbonyl]biphenyl-4-yl}carbonyl)-L-α-glutamine], for which the IC50 in assay [1] was > 25000 nM; in assay [2], ~67000 nM.
For `Cc1cc(C)cc(-c2ccc(C(=O)N[C@@H](CCC(=O)O)C(=O)NCC34CC5CC(CC(C5)C3)C4)cc2)c1` [Example 17X, N-(1-adamantylmethyl)-N^2-[(3′,5′-dimethylbiphenyl-4-yl)carbonyl]-L-α-glutamine], the IC50 in assay [1] was 2000 nM; in assay [2], ~22000 nM.
